Measured values: ChEMBL document CHEMBL1201862, “PubChem BioAssay data set” (2004)
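In this assay, cells in 96-well plates receive the compound at five concentrations for 48 hours. Endpoints are linearly interpolated between the surrounding concentrations. At the GI50, growth is halved.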 Active and inactive are the calls of the source. Rule as the data show it: active = GI50 up to about 1.1 µM and inactive = higher. Where a SMILES comes first, the peptide text is derived from it. [ ]: non-standard residue; d: D form. The star is where a group is joined. ξ: configuration not given here. ξF = NC(Cc1ccccc1)C(=O)O; Cbz = O=C(OCc1ccccc1)*; Aib = CC(C)(N)C(=O)O

Experiments:
Assay in all cases: NCI-60 cell line screen, 48 h
DLD-1 = test system: DLD-1
LXFL 529 = test system: LXFL 529
XF498 = test system: XF498
SNB-78 = test system: SNB-78
DMS-273 = test system: DMS-273
HOP-18 = test system: HOP-18
T47D = test system: T47D
BT-549 = test system: BT-549

SMILES	GI50 (DLD-1)	GI50 (LXFL 529)	GI50 (XF498)	GI50 (SNB-78)	GI50 (DMS-273)	GI50 (HOP-18)	GI50 (T47D)	GI50 (BT-549)
CCCc1c(C(=O)OCC)[nH]c(-c2ccc(-c3[nH]c(C(=O)OCC)c(CCC)c3C(=O)OCC)o2)c1C(=O)OCC	> 100 µM (inactive)	> 100 µM (inactive)	> 100 µM (inactive)	> 100 µM (inactive)	> 100 µM (inactive)	> 100 µM (inactive)		
[N-]=[N+]=NCc1cccc(Nc2cc(=O)[nH]c(=O)[nH]2)c1							51.2 µM (inactive)	> 100 µM (inactive)
Cn1c(=O)c2c(nc(N/N=C3/SCC(=O)N3Cc3ccccc3)n2C)n(C)c1=O							61.4 µM (inactive)	74 µM (inactive)
CCSc1ncnc2c(C3OC(CO)C(O)C3O)nsc12 (configuration not stated)							> 100 µM (inactive)	
N=S(c1ccccc1[N+](=O)[O-])c1ccccc1[N+](=O)[O-]		2.22 µM (inactive)		2.52 µM (inactive)	3.05 µM (inactive)	5.3 µM (inactive)		
O=C(Cc1csc2[n+]1C(=O)/C(=C/c1ccc(Cl)cc1)S2)Nc1ccccc1							16.4 µM (inactive)	22.5 µM (inactive)
Fc1ccccc1C1SCc2nc3cc4ccccc4cc3n21 (configuration not stated)							14 µM (inactive)	> 100 µM (inactive)
CC1(C)CC23C4COC(=O)C2CCC1C3CC4=O (configuration not stated)	11.2 µM (inactive)		13.7 µM (inactive)	15 µM (inactive)	19.9 µM (inactive)	1.72 µM (inactive)		
O=C(O)C1C(Br)(c2ccccc2)C1(Br)c1ccccc1 (configuration not stated)							17.6 µM (inactive)	19.9 µM (inactive)
COc1cc(/C=C/C(=O)Oc2ccc(NC(C)=O)cc2)ccc1C(=O)OCc1ccccc1	> 100 µM (inactive)	> 100 µM (inactive)	25.6 µM (inactive)	32.6 µM (inactive)	78 µM (inactive)	> 100 µM (inactive)	> 100 µM (inactive)	> 100 µM (inactive)
CC1Cc2c(N)nc(N3CCOCC3)nc2NC1=O (configuration not stated)	> 100 µM (inactive)		0.463 µM (active)		> 100 µM (inactive)	> 100 µM (inactive)		
Cn1nc(C(=O)N2CC(CCl)c3c2cc(N)c2ccccc32)cc1NC(=O)Nc1cc(C(=O)N2CC(CCl)c3c2cc(N)c2ccccc32)nn1C (configuration not stated)							< 0.01 µM (active)	0.0718 µM (active)
Cc1c(Cl)nc(Cl)nc1Cl							1.58 µM (inactive)	3.65 µM (inactive)
CC1CCC2(CC1)NC1=C(CC(C)CC1)C1=C2CC(C)CC1 (configuration not stated)							24.3 µM (inactive)	19.1 µM (inactive)
CC(=O)O[C@H]1[C@H](OC(=O)CC(C)(O)CC(=O)O)C[C@]2(C)C3=C(CCC2C1(C)C)[C@]1(C)CC[C@H]([C@H]2CC[C@H](C(C)(C)O)OC2O)[C@@]1(C)[C@@H](O)C3 (some centres not stated)							20.9 µM (inactive)	15.1 µM (inactive)
COc1ccc(NC(=O)CC(=O)n2nc(C)c(/N=N/c3ccccc3C(=O)O)c2C)cc1	> 100 µM (inactive)	> 100 µM (inactive)	> 100 µM (inactive)	29.3 µM (inactive)	> 100 µM (inactive)			

SMILES	GI50 (DLD-1)	GI50 (LXFL 529)	GI50 (XF498)	GI50 (SNB-78)	GI50 (DMS-273)	GI50 (HOP-18)	GI50 (T47D)	GI50 (BT-549)
C=CC(Br)(CBr)CCC(Cl)C(C)C (configuration not stated)								1.6 µM (inactive)
CC(C)=CCC/C(C)=C/CC/C(C)=C/CC/C(=C/CC/C(C)=C\CC/C(C)=C/CC/C(C)=C/CC/C(C)=C/Cc1cc(O)ccc1O)CO							6.05 µM (inactive)	3.6 µM (inactive)
COC(=O)Cc1cc(O)c(C/C=C(\C)CC/C=C(\C)C(O)C(=O)C=C(C)C)cc1O (configuration not stated)							16.5 µM (inactive)	25.6 µM (inactive)
CN1COCc2c1ccc1cc3ccc4c(c3nc21)COCN4S(C)(=O)=O							> 100 µM (inactive)	> 100 µM (inactive)
CC(C)(C)C1=NO[C@H]2[C@@H](NC(=O)c3ccccc3)CC[C@@H]12	> 100 µM (inactive)	> 100 µM (inactive)	> 100 µM (inactive)	> 100 µM (inactive)				
COc1ccc(NC2=NCCO2)c2ccccc12							> 10 µM (inactive)	
CC(=O)OC(C)(C)C[N+](=O)[O-]	> 100 µM (inactive)	> 100 µM (inactive)			> 100 µM (inactive)			
O=C(O)Cc1cccc2c(=O)c3cccc([N+](=O)[O-])c3[nH]c12							> 100 µM (inactive)	27 µM (inactive)
NC(=O)OCC1=C(COC(N)=O)C(=O)c2c(O)ccc(O)c2C1=O	> 100 µM (inactive)	> 100 µM (inactive)		> 100 µM (inactive)	> 100 µM (inactive)	> 100 µM (inactive)		
O=c1cccc2n1C[C@H]1CNC[C@H]2C1								> 100 µM (inactive)
CCCCN=C(OC1C=CCCC1)SC (configuration not stated)							> 100 µM (inactive)	> 100 µM (inactive)
O=C(NCCCNC(=O)c1ccc2cc(O)c(O)cc2c1)c1ccc2cc(O)c(O)cc2c1							26.7 µM (inactive)	26.9 µM (inactive)
Cn1cnc([N+](=O)[O-])c1Sc1nc2cc([N+](=O)[O-])ccc2[nH]1	11.5 µM (inactive)	12.6 µM (inactive)	10.8 µM (inactive)	24.1 µM (inactive)	1.73 µM (inactive)	45.8 µM (inactive)		
COc1ccccc1-c1cc(O)c2c(C)cc(C)nc2n1							8.13 µM (inactive)	96.2 µM (inactive)
COC(=O)C(C)(C)NC(=O)C(Cc1ccccc1)NC(=O)C(C)(C)NC(=O)OCc1ccccc1 (configuration not stated) (Cbz-[Aib]-[ξF]-[Aib]-OMe)							> 100 µM (inactive)	
